Measured values as given in US20090030005A1, “Combinations for the treatment of cancer” (AMGEN INC., priority 2007, published 2009).
Where two headings read alike, the source gives them in different places. One block for each compound: values may come before it.

Assays:
Type in all cases: cell-based
[1] = system: MiaPaCa-2 cells; experiment: 14C-thymidine incorporation assay, IC20 determination (MTAP status not specified); conditions: Homo sapiens, MIA PaCa-2; same thymidine incorporation assay as Example 2
Experimental: (§1) CDK4 inhibitor in MTAP^+/+ and MTAP^−/− MiaPaCa-2 cells. The IC50 of a CDK4 inhibitor was determined in the MTAP+/+ and MTAP−/− MiaPaCa-2 cells using a thymidine incorporation assay. MTAP^−/− and MTAP^+/+ MiaPaCa-2 cells from Example 1 were seeded at 2×10^4 cells/ml in 100 μl per well in Costar T plates (Amersham Biosciences). Twenty-four hours later a dose response of a CDK4 inhibitor PD-0332991 (1 nM; 3 nM, 10 nM, 30 nM, 100 nM, 300 nM, 1 μM, 3 μM, 10 μM and 30 μM concentrations) was added to triplicate wells. ^14C-Thymidine (0.1 μCi, Amersham) was added to each well for a final total volume of 200 μL. Plates were read on a beta counter for incorporation of the radioactive thymidine as a measure of cell viability at time 0, 24, 48, 72 and 96 hours. Data was calculated as the mean and standard deviation of triplicate samples divided by the mean and standard deviation of untreated control samples to yield percent of control.
Alanosine or MTX were then dosed at the IC20 concentrations together with a dose response of the CDK4 inhibitor with or without adenine or MTA.

[2] = system: MTAP-/- MiaPaCa-2 cells; experiment: 14C-thymidine incorporation assay (cell viability) in MTAP-/- MiaPaCa-2 cells; conditions: for IC50: Homo sapiens
Experimental: (§2) Generation of MTAP^+/+ and MTAP^−/− MiaPaCa-2 cells. MiaPaCa-2 pancreatic cells, which harbor a homozygous deletion in MTAP (MTAP^−/−) were obtained from ATCC. Cells were infected with either a control virus (pLPC) or a virus expressing MTAP (pLPC-MTAP). Infected cells were selected by puromycin resistance and maintained in 0.5 μg/ml puromycin. MTAP expression in MTAP^+/+ MiaPaCa-2 cells was confirmed by QPCR.
as §1
(§3) Combination of de novo purine biosynthesis inhibitor and CDK4 inhibitor in MTAP^−/− cells with adenine. MTAP^−/− MiaPaCa-2 cells from Example 1 were seeded at 2×10^4 cells/ml in 100 μl per well in Costar T plates (Amersham Biosciences). Twenty-four hours later a dose response of a CDK4 inhibitor PD-0332991 (1 nM; 3 nM, 10 nM, 30 nM, 100 nM, 300 nM, 1 μM, 3 μM, 10 μM and 30 μM concentrations) was added to triplicate wells with or without 1.7 μM (IC20) of alanosine. Some cells were also treated with 20 μM adenine (Sigma) as rescue substrate. ^14C-Thymidine (0.1 μCi, Amersham) was added to each well for a final total volume of 200 μL. Plates were read for incorporation of the radioactive thymidine as a measure of cell viability on a beta counter at time 0, 24, 48, 72 and 96 hours. Data was calculated as the mean and standard deviation of triplicate samples divided by the mean and standard deviation of untreated control samples to yield percent of control.
as §3, with “MTA.” for “adenine.”, “MTA” for “adenine”
(§4) Combination of MTX and CDK4 inhibitor in MTAP^−/− cells. MTAP^−/− MiaPaCa-2 cells from Example 1 were seeded at 2×10^4 cells/ml in 100 μl per well in Costar T plates (Amersham Biosciences). Twenty-four hours later a dose response of a CDK4 inhibitor PD-0332991 (1 nM; 3 nM, 10 nM, 30 nM, 100 nM, 300 nM, 1 μM, 3 μM, 10 μM and 30 μM concentrations) and thymidine (20 μM, Sigma) was added to triplicate wells with or without 20 nM (IC20) of MTX. ^14C-Thymidine (0.1 μCi, Amersham) was added to each well for a final total volume of 200 μL. Plates were read for incorporation of the radioactive thymidine as a measure of cell viability on a beta counter at time 0, 24, 48, 72 and 96 hours.

[3] = system: MTAP+/+ MiaPaCa-2 cells; experiment: 14C-thymidine incorporation assay (cell viability) in MTAP+/+ MiaPaCa-2 cells; conditions: for IC50: Homo sapiens
Experimental: as §2, §1
as §3, with “MTAP^+/+” for “MTAP^−/−”
Combination of de novo purine biosynthesis inhibitor and CDK4 inhibitor in MTAP^+/+ cells with MTA. MTAP^+/+ MiaPaCa-2 cells from Example 1 were seeded at 2×10^4 cells/ml in 100 μl per well in Costar T plates (Amersham Biosciences).
as §3, with “Twenty-four” for “Combination of de novo purine biosynthesis inhibitor and CDK4 inhibitor in MTAP^−/− cells with adenine. MTAP^−/− MiaPaCa-2 cells from Example 1 were seeded at 2×10^4 cells/ml in 100 μl per well in Costar T plates (Amersham Biosciences). Twenty-four”, “MTA” for “adenine”
as §4, with “MTAP^+/+” for “MTAP^−/−”

SMILES: CN(Cc1cnc2nc(N)nc(N)c2n1)c1ccc(C(=O)N[C@@H](CCC(=O)O)C(=O)O)cc1 [MTX, Methotrexate]
- IC20 [1]: 2 nM

- IC50 ([2]; MIA PaCa-2, Example 2, first experiment, CDK4 inhibitor alone, MTAP-/- cells, FIG. 1, read-out: IC50 of the CDK4 inhibitor): 1560 nM
- IC50 ([2]; MIA PaCa-2, MTAP-/- cells, 1.7 μM alanosine and 20 μM MTA, read-out: IC50 of the CDK4 inhibitor together with the alanosine and with MTA): 643 nM
- IC50 ([2]; MIA PaCa-2, MTAP-/- cells, 1.7 μM alanosine and 20 μM adenine, read-out: IC50 of the CDK4 inhibitor together with the alanosine and with adenine): 2460 nM
- IC50 ([2]; MIA PaCa-2, MTAP-/- cells, 20 μM MTA, read-out: IC50 of the CDK4 inhibitor together with the MTA): 1710 nM
- IC50 ([2]; MIA PaCa-2, MTAP-/- cells, 20 μM adenine, read-out: IC50 of the CDK4 inhibitor together with the adenine): 950 nM
- IC50 ([2]; MIA PaCa-2, MTAP-/- cells, Examples 4 and 6, FIG. 3, 5, read-out: IC50 of the CDK4 inhibitor alone): 1280 nM
- IC50 ([2]; MIA PaCa-2, MTAP-/- cells, with 1.7 μM (IC20) alanosine, read-out: IC50 of the CDK4 inhibitor together with the alanosine): 287 nM
- IC50 ([2]; MIA PaCa-2, MTAP-/- cells, with thymidine 20 μM and 20 nM (IC20) MTX, read-out: IC50 of the CDK4 inhibitor together with MTX): 800 nM
- IC50 ([2]; MIA PaCa-2, MTAP-/- cells, with thymidine 20 μM, Example 8, FIG. 7, read-out: IC50 of the CDK4 inhibitor alone): 1300 nM
- IC50 ([3]; MIA PaCa-2, Example 2, first experiment, CDK4 inhibitor alone, MTAP+/+ cells, FIG. 1, read-out: IC50 of the CDK4 inhibitor): 1820 nM
- IC50 ([3]; MIA PaCa-2, MTAP+/+ cells, 1.7 μM alanosine and 20 μM MTA, read-out: IC50 of the CDK4 inhibitor together with the alanosine and with MTA): 6100 nM
- IC50 ([3]; MIA PaCa-2, MTAP+/+ cells, 1.7 μM alanosine and 20 μM adenine, read-out: IC50 of the CDK4 inhibitor together with the alanosine and with adenine): 5560 nM
- IC50 ([3]; MIA PaCa-2, MTAP+/+ cells, 20 μM MTA, read-out: IC50 of the CDK4 inhibitor together with the MTA): 8250 nM
- IC50 ([3]; MIA PaCa-2, MTAP+/+ cells, 20 μM adenine, read-out: IC50 of the CDK4 inhibitor together with the adenine): 7360 nM
- IC50 ([3]; MIA PaCa-2, MTAP+/+ cells, Examples 3 and 5, FIG. 2, 4, read-out: IC50 of the CDK4 inhibitor alone): 4330 nM
- IC50 ([3]; MIA PaCa-2, MTAP+/+ cells, with 1.7 μM (IC20) alanosine, read-out: IC50 of the CDK4 inhibitor together with the alanosine): 996 nM
- IC50 ([3]; MIA PaCa-2, MTAP+/+ cells, with thymidine 20 μM and 20 nM (IC20) MTX, read-out: IC50 of the CDK4 inhibitor together with MTX): 3500 nM
- IC50 ([3]; MIA PaCa-2, MTAP+/+ cells, with thymidine 20 μM, Example 7, FIG. 6, read-out: IC50 of the CDK4 inhibitor alone): 3200 nM
SMILES: CC(=O)c1c(C)c2cnc(Nc3ccc(N4CCNCC4)cn3)nc2n(C2CCCC2)c1=O [PD-0332991]

- Rescue of the alanosine shift of the IC50 of the CDK4 inhibitor ([2]; MTAP-/- cells, 20 μM rescue substrate): rescued
- Rescue of the alanosine shift of the IC50 of the CDK4 inhibitor ([3]; MTAP+/+ cells, 20 μM rescue substrate): rescued
SMILES: Nc1ncnc2nc[nH]c12 [adenine]

SMILES: N[C@@H](CN(O)N=O)C(=O)O [alanosine]
- IC20 [1]: 1700 nM
